Experimental data as given in US20040110802A1, “Antibacterial benzoic acid derivatives” (priority 2002, published 2004).
Converted amounts (≈) assume the structure as drawn.

These molecules were tested on SAUR 9218 (assay: MIC Test Method, standard agar dilution). Conditions: agar dilution, Mueller Hinton agar, incubated overnight at 35° C.; lowest concentration that inhibits visible growth; read-out: SAUR 9218 MIC.
Assay type: cell-based
In short: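 MIC (μg/ml) was read as the lowest drug level without visible growth of SAUR 9218 after overnight incubation at 35 °C. Inocula of about 10^4 to 10^5 cells per spot were applied to Mueller Hinton agar containing 2-fold serial compound dilutions.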

| SMILES | MIC [µg/mL] |
| --- | --- |
| O=C(Nc1ccc(Br)cc1C(=O)O)c1ccsc1 | > 128 |
| O=C(O)c1cc(Br)ccc1NC(=O)c1c[nH]c2ccccc12 | 4 (≈ 11.1 µM) |
| O=C(Nc1ccc(Br)cc1C(=O)O)c1ccc2c(c1)OCO2 | 16 (≈ 43.9 µM) |
| O=C(Nc1ccc(Br)cc1C(=O)O)c1cc2ccccc2o1 | 8 (≈ 22.2 µM) |
| O=C(O)c1cc(Br)ccc1NC(=O)c1cccnc1Cl | > 128 |
| O=C(Nc1ccc(Br)cc1C(=O)O)c1ccccn1 | > 128 |
| CCCCc1ccc(C(=O)Nc2ccc(Br)cc2C(=O)O)nc1 | > 128 |
| N#Cc1ccc(-c2cnc(C(=O)Nc3ccc(Br)cc3C(=O)O)o2)cc1 | 8 (≈ 19.4 µM) |
| COc1cnc(C(=O)Nc2ccc(Br)cc2C(=O)O)cn1 | 4 (≈ 11.4 µM) |
| N#Cc1ccc(NC(=O)c2ncc(-c3ccc4c(c3)OCO4)o2)c(C(=O)O)c1 | 2 (≈ 5.3 µM) |
| CCC(C)Sc1cnc(C(=O)Nc2ccc(Br)cc2C(=O)O)cn1 (stereo not shown) | 0.5 (≈ 1.22 µM) |
| CCCCSc1cnc(C(=O)Nc2ccc(Br)cc2C(=O)O)cn1 | 1 (≈ 2.44 µM) |
| CCCCSc1cnc(C(=O)Nc2ccc(Cl)cc2C(=O)O)cn1 | 0.5 (≈ 1.37 µM) |
| Cn1c(/C=C/c2ccc(C#N)cc2C(=O)O)cc2ccccc21 | 64 (≈ 212 µM) |
| Cn1nc(-c2ccccc2)cc1C(=O)Nc1ccc(Br)cc1C(=O)O | 64 (≈ 160 µM) |
| Cn1nc(C(=O)Nc2ccc(Br)cc2C(=O)O)cc1-c1ccccc1 | 32 (≈ 80 µM) |
| COc1ccc(-c2cc(C(=O)Nc3ccc(Br)cc3C(=O)O)nn2C)cc1 | > 128 |
| O=C(Nc1ccc(Br)cc1C(=O)O)c1cc(-c2ccccc2)n[nH]1 | > 128 |
| O=C(O)c1cc(Br)ccc1NC(=O)c1noc2ccccc12 | 0.25 (≈ 0.692 µM) |
| N#Cc1ccc(NC(=O)c2ncc(-c3ccccc3C(F)(F)F)o2)c(C(=O)O)c1 | 1 (≈ 2.49 µM) |
| N#Cc1ccc(NC(=O)c2ccc(SCCCCN)nc2)c(C(=O)O)c1.O=C(O)C(F)(F)F | 2 |
| CCCCCSc1cnc(C(=O)Nc2ccc(Br)cc2C(=O)O)cn1 | 0.25 (≈ 0.589 µM) |
| CCCCCCSc1cnc(C(=O)Nc2ccc(Br)cc2C(=O)O)cn1 | 0.5 (≈ 1.14 µM) |

| SMILES | MIC [µg/mL] |
| --- | --- |
| CCC(C)Sc1cnc(C(=O)Nc2ccc(C#N)cc2C(=O)O)cn1 (stereo not shown) | 0.25 (≈ 0.701 µM) |
| N#Cc1ccc(NC(=O)c2ncc(-c3ccco3)o2)c(C(=O)O)c1 | 2 (≈ 6.19 µM) |
| O=C(Nc1ccc(Br)cc1C(=O)O)c1ncc(-c2ccco2)o1 | 2 (≈ 5.3 µM) |
| Cn1nc(-c2c(F)cccc2F)cc1C(=O)Nc1ccc(Br)cc1C(=O)O | 128 (≈ 293 µM) |
| O=C(Nc1ccc(Br)cc1C(=O)O)c1ncc(-c2ccc(F)cc2)o1 | 2 (≈ 4.94 µM) |
| N#Cc1ccc(-c2cnc(C(=O)Nc3ccc(C#N)cc3C(=O)O)o2)cc1 | > 128 |
| Cn1cccc1-c1cnc(C(=O)Nc2ccc(Br)cc2C(=O)O)o1 | 2 (≈ 5.13 µM) |
| N#Cc1cccc(-c2cnc(C(=O)Nc3ccc(Br)cc3C(=O)O)o2)c1 | 4 (≈ 9.7 µM) |
| CCCCCSc1cnc(C(=O)Nc2ccc(C#N)cc2C(=O)O)cn1 | 0.125 (≈ 0.337 µM) |
| COCCOCCCSc1cnc(C(=O)Nc2ccc(Br)cc2C(=O)O)cn1 | 2 (≈ 4.25 µM) |
| COCCOCCCSc1cnc(C(=O)Nc2ccc(Cl)cc2C(=O)O)cn1 | 2 (≈ 4.7 µM) |
| O=C(Nc1ccc(Cl)cc1C(=O)O)c1cc(-c2ccccc2NS(=O)(=O)c2ccc(OC(F)(F)F)cc2)on1 | 8 (≈ 13.7 µM) |
| N#Cc1ccc(NC(=O)c2cc(-c3ccc4c(c3)OCO4)on2)c(C(=O)O)c1 | 0.125 (≈ 0.331 µM) |
| O=C(Nc1ccc(Br)cc1C(=O)O)c1cc(-c2ccc3c(c2)OCO3)on1 | 0.125 (≈ 0.29 µM) |
| N#Cc1ccc(NC(=O)c2noc3ccc([N+](=O)[O-])cc23)c(C(=O)O)c1 | 0.25 (≈ 0.71 µM) |
| COCCOCCCSc1cnc(C(=O)Nc2ccc(C#N)cc2C(=O)O)cn1 | 1 (≈ 2.4 µM) |
| CCCCCSc1cnc(C(=O)Nc2ccc(Cl)cc2C(=O)O)cn1 | 0.125 (≈ 0.329 µM) |
| CCCCCCSc1cnc(C(=O)Nc2ccc(C#N)cc2C(=O)O)cn1 | 0.125 (≈ 0.325 µM) |
| CCCCCCSc1cnc(C(=O)Nc2ccc(Cl)cc2C(=O)O)cn1 | 0.5 (≈ 1.27 µM) |
| Cn1cccc1-c1cnc(C(=O)Nc2ccc(C#N)cc2C(=O)O)o1 | 2 (≈ 5.95 µM) |
| CCC(C)Sc1cnc(C(=O)Nc2ccc(Cl)cc2C(=O)O)cn1 (stereo not shown) | 0.25 (≈ 0.683 µM) |
| N#Cc1cccc(-c2cnc(C(=O)Nc3ccc(C#N)cc3C(=O)O)o2)c1 | 2 (≈ 5.58 µM) |
| O=C(Nc1ccc(Br)cc1C(=O)O)c1coc(CC[C@H](O)CO)n1 | > 128 |

The next lines start with the values.

| MIC [µg/mL] | SMILES |
| --- | --- |
| 2 (≈ 4.97 µM) | CC1(C(=O)Nc2cccc3cc(C(=O)Nc4ccc(C#N)cc4C(=O)O)[nH]c23)CC1 |
| 0.5 (≈ 1.04 µM) | CCOc1ccc(CC(=O)Nc2cccc3cc(C(=O)Nc4ccc(C#N)cc4C(=O)O)[nH]c23)cc1 |
| 0.25 (≈ 0.506 µM) | N#Cc1ccc(NC(=O)c2cc3cccc(NC(=O)Cc4csc5ccccc45)c3[nH]2)c(C(=O)O)c1 |
| 0.5 (≈ 0.999 µM) | N#Cc1ccc(NC(=O)c2cc3cccc(NC(=O)c4ccc(-c5ccccc5)cc4)c3[nH]2)c(C(=O)O)c1 |
| 2 (≈ 4.03 µM) | CCCCOc1ccc(C(=O)Nc2cccc3cc(C(=O)Nc4ccc(C#N)cc4C(=O)O)[nH]c23)cc1 |
| 0.5 (≈ 0.946 µM) | N#Cc1ccc(NC(=O)c2cc3cccc(NC(=O)c4ccccc4CCc4ccccc4)c3[nH]2)c(C(=O)O)c1 |
| 1 (≈ 2 µM) | N#Cc1ccc(NC(=O)c2cc3cccc(NC(=O)c4ccccc4-c4ccccc4)c3[nH]2)c(C(=O)O)c1 |
| 0.25 (≈ 0.516 µM) | CCSc1ccc(C(=O)Nc2cccc3cc(C(=O)Nc4ccc(C#N)cc4C(=O)O)[nH]c23)cc1 |
| 4 (≈ 7.96 µM) | CS(=O)(=O)c1ccccc1C(=O)Nc1cccc2cc(C(=O)Nc3ccc(C#N)cc3C(=O)O)[nH]c12 |
| 0.25 (≈ 0.493 µM) | N#Cc1ccc(NC(=O)c2cc3cccc(NC(=O)Cc4c(Cl)cccc4Cl)c3[nH]2)c(C(=O)O)c1 |
| 0.5 (≈ 0.972 µM) | N#Cc1ccc(NC(=O)c2cc3cccc(NC(=O)Cc4ccc(-c5ccccc5)cc4)c3[nH]2)c(C(=O)O)c1 |
| 0.5 (≈ 1.04 µM) | N#Cc1ccc(NC(=O)c2cc3cccc(NC(=O)Cc4ccc5c(c4)OCO5)c3[nH]2)c(C(=O)O)c1 |
| 2 (≈ 4.78 µM) | CC(C)(C)CC(=O)Nc1cccc2cc(C(=O)Nc3ccc(C#N)cc3C(=O)O)[nH]c12 |
| 0.5 (≈ 1.12 µM) | N#Cc1ccc(NC(=O)c2cc3cccc(NC(=O)Cc4cccs4)c3[nH]2)c(C(=O)O)c1 |
| 0.5 (≈ 0.989 µM) | Cc1noc(-c2ccccc2)c1C(=O)Nc1cccc2cc(C(=O)Nc3ccc(C#N)cc3C(=O)O)[nH]c12 |
| 4 (≈ 8.33 µM) | COCCOCCOCC(=O)Nc1cccc2cc(C(=O)Nc3ccc(C#N)cc3C(=O)O)[nH]c12 |
| 1 (≈ 2.27 µM) | N#Cc1ccc(NC(=O)c2cc3cccc(NC(=O)c4ccccc4O)c3[nH]2)c(C(=O)O)c1 |
| 1 (≈ 1.84 µM) | N#Cc1ccc(NC(=O)c2cc3cccc(NS(=O)(=O)c4ccc(OC(F)(F)F)cc4)c3[nH]2)c(C(=O)O)c1 |
| > 128 | N#Cc1ccc(NC(=O)c2cc3cccc(NC(=O)C4CCCN4)c3[nH]2)c(C(=O)O)c1 (stereo not shown) |
| 2 (≈ 4.51 µM) | Cc1cc(CC(=O)Nc2cccc3cc(C(=O)Nc4ccc(C#N)cc4C(=O)O)[nH]c23)on1 |
| 8 (≈ 14 µM) | N#Cc1ccc(NC(=O)c2cc(-c3ccccc3NS(=O)(=O)c3ccc(OC(F)(F)F)cc3)on2)c(C(=O)O)c1 |
| 1 (≈ 3.25 µM) | N#Cc1ccc(NC(=O)c2nc3ccccc3o2)c(C(=O)O)c1 |
| 0.125 (≈ 0.263 µM) | N#Cc1ccc(NC(=O)c2cc3cccc(NS(=O)(=O)Cc4ccccc4)c3[nH]2)c(C(=O)O)c1 |
| 2 (≈ 3.4 µM) | Cn1c(C(=O)Nc2ccc(C#N)cc2C(=O)O)cc2cccc(NC(=O)c3cccc(S(=O)(=O)N4CCOCC4)c3)c21 |
| 0.125 (≈ 0.266 µM) | Cn1c(C(=O)Nc2ccc(C#N)cc2C(=O)O)cc2cccc(NC(=O)Cc3ccc(F)cc3)c21 |
| 0.125 (≈ 0.254 µM) | Cn1c(C(=O)Nc2cccc3cc(C(=O)Nc4ccc(C#N)cc4C(=O)O)n(C)c23)cc2ccccc21 |
| 1 (≈ 2.27 µM) | N#Cc1ccc(NC(=O)c2noc3ccc(NC(=O)Cc4ccccc4)cc23)c(C(=O)O)c1 |
